Data published in ChEMBL document CHEMBL1201862, “PubChem BioAssay data set” (2004).
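Following 48 hours of exposure in 96-well plates, responses at five concentrations were used to interpolate endpoints linearly. At the GI50, growth is halved.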 Active and inactive are the calls of the source. No stated cut-off is given here; in the data, active = GI50 up to about 1.1 µM and inactive = higher.

Legend:
Experiment in all cases: growth of human tumour cells (NCI), 48 h
[1] = tested on: CAKI-1
[2] = tested on: EKVX
[3] = tested on: HCC 2998
[4] = tested on: HCT-116
[5] = tested on: HL-60
[6] = tested on: HOP-62
[7] = tested on: Hs-578T
[8] = tested on: K562
[9] = tested on: LOX IMVI
[10] = tested on: M14
[11] = tested on: MDA-MB-231
[12] = tested on: MDA-N
[13] = tested on: NCI-H460
[14] = tested on: OVCAR-3
[15] = tested on: OVCAR-5
[16] = tested on: RXF 393
[17] = tested on: SK-MEL-28
[18] = tested on: UACC-257
[19] = tested on: UO-31
[20] = tested on: SNB-75

Measured: GI50

O=C(CCc1ccc(O)cc1)NCCc1ccc(O)cc1
inactive: [1] > 100 µM | [2] > 100 µM | [3] > 100 µM | [4] > 100 µM | [5] > 100 µM | [6] > 100 µM | [7] > 100 µM | [8] > 100 µM | [9] > 100 µM | [10] > 100 µM | [11] > 100 µM | [12] > 100 µM | [13] > 100 µM | [14] > 100 µM | [15] > 100 µM | [16] > 100 µM | [17] > 100 µM | [18] > 100 µM | [19] > 100 µM

S=C1CSc2c(cnc3ccccc23)N1
inactive: [1] 78.7 µM | [2] 76.4 µM | [4] > 100 µM | [5] > 100 µM | [6] > 100 µM | [7] 20 µM | [8] > 100 µM | [9] > 100 µM | [10] > 100 µM | [11] > 100 µM | [12] > 100 µM | [13] 56.6 µM | [14] > 100 µM | [15] > 100 µM | [16] 20 µM | [17] > 100 µM | [20] 56.8 µM | [18] > 100 µM | [19] 65.6 µM

Cc1c(O)nc(/C=C/C(=O)O)nc1C(=O)O
inactive: [1] > 100 µM | [2] > 100 µM | [4] > 100 µM | [5] > 100 µM | [6] > 100 µM | [7] > 100 µM | [8] > 100 µM | [9] > 100 µM | [10] > 100 µM | [11] > 100 µM | [12] > 100 µM | [13] > 100 µM | [14] > 100 µM | [15] > 100 µM | [16] > 100 µM | [17] > 100 µM | [20] > 100 µM | [18] > 100 µM | [19] > 100 µM

COC(=O)[C@@H]1[C@H](O)CC[C@H]2[C@@]1(C)CC[C@@H](C)[C@]2(COC(C)=O)CC(=O)c1ccoc1
inactive: [1] > 50 µM | [2] > 50 µM | [4] > 50 µM | [5] 17 µM | [7] > 50 µM | [9] > 50 µM | [10] > 50 µM | [11] > 50 µM | [12] > 50 µM | [13] > 50 µM | [14] > 50 µM | [15] > 50 µM | [16] > 50 µM | [17] > 50 µM | [20] > 50 µM | [18] > 50 µM | [19] > 50 µM
